Where a name gives a salt, the structure may show the parent alone. Where only a bound is given, the exact number is not on record here.

The target in this experiment is T1, AR (Homo sapiens, UniProt P10275).
T1 construct: endogenous in cells; host or cells: VCaP cells
T1 sequence (P10275 1-920): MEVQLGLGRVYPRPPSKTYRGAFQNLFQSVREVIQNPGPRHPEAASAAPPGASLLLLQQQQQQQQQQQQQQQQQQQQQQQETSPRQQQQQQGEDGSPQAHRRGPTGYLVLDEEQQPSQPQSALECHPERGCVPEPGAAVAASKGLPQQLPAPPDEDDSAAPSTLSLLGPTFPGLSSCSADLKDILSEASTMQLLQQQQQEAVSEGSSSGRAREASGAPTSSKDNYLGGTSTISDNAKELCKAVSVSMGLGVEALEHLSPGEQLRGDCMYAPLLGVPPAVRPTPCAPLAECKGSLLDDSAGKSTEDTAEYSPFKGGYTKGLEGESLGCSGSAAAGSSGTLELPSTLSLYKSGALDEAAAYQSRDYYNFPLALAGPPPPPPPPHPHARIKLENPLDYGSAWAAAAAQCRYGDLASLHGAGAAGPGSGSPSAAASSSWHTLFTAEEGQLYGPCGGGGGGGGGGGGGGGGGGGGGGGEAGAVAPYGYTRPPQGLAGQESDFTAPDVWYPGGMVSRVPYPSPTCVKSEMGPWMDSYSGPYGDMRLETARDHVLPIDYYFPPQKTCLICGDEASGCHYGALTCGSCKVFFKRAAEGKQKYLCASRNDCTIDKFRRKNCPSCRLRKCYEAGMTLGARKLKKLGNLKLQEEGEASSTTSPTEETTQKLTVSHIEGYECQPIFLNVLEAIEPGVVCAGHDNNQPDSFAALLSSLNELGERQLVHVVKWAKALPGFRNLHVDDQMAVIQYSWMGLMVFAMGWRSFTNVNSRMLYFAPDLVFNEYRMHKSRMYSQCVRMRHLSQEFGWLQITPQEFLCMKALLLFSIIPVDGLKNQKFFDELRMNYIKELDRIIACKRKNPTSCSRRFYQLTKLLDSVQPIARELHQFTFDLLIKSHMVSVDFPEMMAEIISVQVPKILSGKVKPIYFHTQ
Description: VCAP AR Degradation Assay. In kind it is cell-based. The following applies: VCaP cells, 24 h, AR ELISA; for DC50: concentration of compound when AR level = 50% of DMSO control; for Y: lowest measured AR level normalized to DMSO control (AR degradation efficiency). The protocol:
VCAP AR Degradation Assay. Test compounds were pre-dispensed into a Corning CellBind 96-well clear bottom plate (Cat #3300) using an acoustic dispenser to make a 10-point concentration series at 1:3 dilution for each compound. The final top concentration of each compound was 5 μM. DMSO at a final concentration of 0.1% was used as a control. VCaP cells cultured in DMEM with 8% fetal bovine serum (FBS) were seeded at 50K cells per well in a 200 μL volume into the compound plate and incubated at 37° C. in a CO2 incubator for 24 h. The medium was carefully removed from the cells and the plate was placed on ice. One hundred μL of ice-cold 1× cell lysis buffer from Cell Signaling Technologies (Cat #9803) was added to each well of the cells and the plate was incubated at 4° C. on a shaker for 1 h. Fifteen μL of cell lysate was used for AR ELISA detection using a PathScan Total Sandwich AR ELISA kit (Cell Signaling Technology, Cat #12580). AR levels in compound-treated wells were normalized to that of DMSO control and expressed as percent of control (PoC) (y). A Four Parameter Logistic Model (Sigmoidal Dose-Response Model) was used to determine the compound's DC50, and EC50, using the following equation: […]
The lowest measured AR level normalized to DMSO control in response to compound treatment, termed Y value, was used to characterize the compound-mediated AR degradation efficiency.
A general note: An ELISA detects its analyte on a solid surface through an enzyme-linked reagent.

For orientation: DC50 means the midpoint of the concentration-degradation curve. Regarding `C[C@@H]1CN(CCCC[C@H]2CC[C@H](N3C(=S)N(c4ccc(C#N)c(C(F)(F)F)c4)C(=O)C3(C)C)CC2)C[C@H](C)N1CC(=O)Nc1cc(N2CCC(=O)NC2=O)ccn1` [Cmpd 17, 2-((2R,6S)-4-(4-((trans)-4-(3-(4-Cyano-3-(trifluoromethyl)phenyl)-5,5-dimethyl-4-oxo-2-thioxoimidazolidin-1-yl)cyclohexyl)butyl)-2,6-dimethylpiperazin-1-yl)-N-(4-(2,4-dioxotetrahydropyrimidin-1(2H)-yl)pyridin-2-yl)acetamide], the DC50 was 5 to 50 nM and the Y result was “** (20%<Y≤40%)”.
The like results for `C[C@@H]1CN(CCCO[C@H]2CC[C@H](N3C(=S)N(c4ccc(C#N)c(C(F)(F)F)c4)C(=O)C3(C)C)CC2)C[C@H](C)N1CC(=O)Nc1cc(C2CCC(=O)NC2=O)ccn1` (stereo partly drawn) [Cmpd 13, 2-((2R,6S)-4-(3-((trans-4-(3-(4-Cyano-3-(trifluoromethyl)phenyl)-5,5-dimethyl-4-oxo-2-thioxoimidazolidin-1-yl)cyclohexyl)oxy)propyl)-2,6-dimethylpiperazin-1-yl)-N-(4-(2,6-dioxopiperidin-3-yl)pyridin-2-yl)acetamide hydrochloride] were, in that order, not above 5 nM and “*** (40%<Y<80%)”.
The like results for `C[C@@H]1CN(CCCO[C@H]2CC[C@H](N3C(=S)N(c4ccc(C#N)c(C(F)(F)F)c4)C(=O)C3(C)C)CC2)C[C@H](C)N1CC(=O)Nc1ccc(C2CCC(=O)NC2=O)cn1` (stereo partly drawn) [Cmpd 10, 2-((2R,6S)-4-(3-((trans-4-(3-(4-Cyano-3-(trifluoromethyl)phenyl)-5,5-dimethyl-4-oxo-2-thioxoimidazolidin-1-yl)cyclohexyl)oxy)propyl)-2,6-dimethylpiperazin-1-yl)-N-(5-(2,6-dioxopiperidin-3-yl)pyridin-2-yl)acetamide hydrochloride] were, in that order, more than 200 nM and “*** (40%<Y<80%)”.
For the compound `C[C@@H]1CN(CCCO[C@H]2CC[C@H](N3C(=S)N(c4ccc(C#N)c(C(F)(F)F)c4)C(=O)C3(C)C)CC2)C[C@H](C)N1CC(=O)Nc1cc(N2CCC(=O)NC2=O)ccn1` (single isomer, unassigned) [Cmpd 7, hydrochloride], the DC50 was more than 200 nM and the Y entry is “*** (40%<Y<80%)”.
For the compound `C[C@@H]1C[C@H](OCCO[C@H]2CC[C@H](N3C(=S)N(c4ccc(C#N)c(C(F)(F)F)c4)C(=O)C3(C)C)CC2)C[C@H](C)N1CC(=O)Nc1cc(C2CCC(=O)NC2=O)ccn1` (stereo partly drawn) [Cmpd 29, 2-((2R,4r,6S)-4-(2-(((trans)-4-(3-(4-Cyano-3-(trifluoromethyl)phenyl)-5,5-dimethyl-4-oxo-2-thioxoimidazolidin-1-yl)cyclohexyl)oxy)ethoxy)-2,6-dimethylpiperidin-1-yl)-N-(4-(2,6-dioxopiperidin-3-yl)pyridin-2-yl)acetamide], the DC50 fell in the range of 5 to 50 nM and the Y entry is recorded as “** (20%<Y≤40%)”.
In the same order, the values of `C[C@@H]1CN(CCO[C@H]2CC[C@H](N3C(=S)N(c4ccc(C#N)c(C(F)(F)F)c4)C(=O)C3(C)C)CC2)C[C@H](C)N1CC(=O)Nc1ccc(C2(C)CCC(=O)NC2=O)cn1` (single isomer, unassigned) [Cmpd 5, hydrochloride] are more than 200 nM and “*** (40%<Y<80%)”.
In the same order, the values of `CC1(C)C(=O)N(c2cnc(C#N)c(C(F)(F)F)c2)C(=S)N1[C@H]1CC[C@H](OCCN2CCN(CC(=O)Nc3cc(C4CCC(=O)NC4=O)ccn3)[C@@H](C(F)(F)F)C2)CC1` (stereo partly drawn) [Cmpd 22, 2-((R)-4-(2-(((trans)-4-(3-(6-Cyano-5-(trifluoromethyl)pyridin-3-yl)-5,5-dimethyl-4-oxo-2-thioxoimidazolidin-1-yl)cyclohexyl)oxy)ethyl)-2-(trifluoromethyl)piperazin-1-yl)-N-(4-(2,6-dioxopiperidin-3-yl)pyridin-2-yl)acetamide] are not above 5 nM and “* (0<Y≤20%)”.
The like results for `C[C@@H]1CN(CCCC[C@H]2CC[C@H](N3C(=S)N(c4ccc(C#N)c(C(F)(F)F)c4)C(=O)C3(C)C)CC2)C[C@H](C)N1CC(=O)Nc1ccc(N2CCC(=O)NC2=O)cn1` [Cmpd 18, 2-((2R,6S)-4-(4-((trans)-4-(3-(4-Cyano-3-(trifluoromethyl)phenyl)-5,5-dimethyl-4-oxo-2-thioxoimidazolidin-1-yl)cyclohexyl)butyl)-2,6-dimethylpiperazin-1-yl)-N-(5-(2,4-dioxotetrahydropyrimidin-1(2H)-yl)pyridin-2-yl)acetamide] were, in that order, 5 to 50 nM and “** (20%<Y≤40%)”.
Take `C[C@@H]1CN(CCO[C@H]2CC[C@H](N3C(=S)N(c4ccc(C#N)c(C(F)(F)F)c4)C(=O)C3(C)C)CC2)C[C@H](C)N1CC(=O)Nc1ccc(C2(C)CCC(=O)NC2=O)cn1` (single isomer, unassigned) [Cmpd 6, hydrochloride]: the DC50 is more than 200 nM and the Y result is reported as “*** (40%<Y<80%)”.
In the same order, the values of `C[C@@H]1CN(CCO[C@H]2CC[C@H](N3C(=S)N(c4ccc(C#N)c(C(F)(F)F)c4)C(=O)C3(C)C)CC2)C[C@H](C)N1CCOc1ccc(N2CCC(=O)NC2=O)cn1` [Cmpd 11, 4-(3-(trans-4-(2-((3R,5S)-4-(2-((5-(2,4-Dioxotetrahydropyrimidin-1(2H)-yl)pyridin-2-yl)oxy)ethyl)-3,5-dimethylpiperazin-1-yl)ethoxy)cyclohexyl)-4,4-dimethyl-5-oxo-2-thioxoimidazolidin-1-yl)-2-(trifluoromethyl)benzonitrile hydrochloride] are more than 200 nM and “*** (40%<Y<80%)”.
In the same order, the values of `C[C@@H]1C[C@H](OCC[C@H]2CC[C@H](N3C(=S)N(c4cnc(C#N)c(C(F)(F)F)c4)C(=O)C3(C)C)CC2)C[C@H](C)N1CC(=O)Nc1cc(C2CCC(=O)NC2=O)ccn1` (stereo partly drawn) [Cmpd 30, 2-((2R,4r,6S)-4-(2-((trans)-4-(3-(6-Cyano-5-(trifluoromethyl)pyridin-3-yl)-5,5-dimethyl-4-oxo-2-thioxoimidazolidin-1-yl)cyclohexyl)ethoxy)-2,6-dimethylpiperidin-1-yl)-N-(4-(2,6-dioxopiperidin-3-yl)pyridin-2-yl)acetamide] are 5 to 50 nM and “* (0<Y≤20%)”.
In the same order, the values of `C[C@@H]1C[C@H](OCCC[C@H]2CC[C@H](N3C(=S)N(c4ccc(C#N)c(C(F)(F)F)c4)C(=O)C3(C)C)CC2)C[C@H](C)N1CC(=O)Nc1cc(C2CCC(=O)NC2=O)ccn1` (stereo partly drawn) [Cmpd 28, 2-((2R,4r,6S)-4-(3-((trans)-4-(3-(4-Cyano-3-(trifluoromethyl)phenyl)-5,5-dimethyl-4-oxo-2-thioxoimidazolidin-1-yl)cyclohexyl)propoxy)-2,6-dimethylpiperidin-1-yl)-N-(4-(2,6-dioxopiperidin-3-yl)pyridin-2-yl)acetamide] are 5 to 50 nM and “** (20%<Y≤40%)”.
Compound `C[C@@H]1CN(CCO[C@H]2CC[C@H](N3C(=S)N(c4ccc(C#N)c(C(F)(F)F)c4)C(=O)C3(C)C)CC2)C[C@H](C)N1CC(=O)Nc1cc(C2(C)CCC(=O)NC2=O)ccn1` (single isomer, unassigned) [Cmpd 9, hydrochloride] came in with a DC50 not above 5 nM. Moreover, for the setting “hydrochloride”, the Y result is listed as “** (20%<Y≤40%)”.
`C[C@@H]1CN(CCO[C@H]2CC[C@H](N3C(=S)N(c4ccc(C#N)c(C(F)(F)F)c4)C(=O)C3(C)C)CC2)C[C@H](C)N1CC(=O)Nc1ccc(C2CCC(=O)NC2=O)cn1` (stereo partly drawn) [Cmpd 2, 2-((2R,6S)-4-(2-((trans-4-(3-(4-Cyano-3-(trifluoromethyl)phenyl)-5,5-dimethyl-4-oxo-2-thioxoimidazolidin-1-yl)cyclohexyl)oxy)ethyl)-2,6-dimethylpiperazin-1-yl)-N-(5-(2,6-dioxopiperidin-3-yl)pyridin-2-yl)acetamide hydrochloride]: the DC50 lay within 5 to 50 nM and the Y entry is recorded as “** (20%<Y≤40%)”.

The values above are taken from patent publication US20250100995A1, “CEREBLON BINDING COMPOUNDS, COMPOSITIONS THEREOF, AND METHODS OF TREATMENT THEREWITH” (CELGENE CORPORATION, priority 2021, published 2025).
